Earlier results in patent US7479499B2 (Celgene Corporation, priority 2000, dated 2009).

Tests used:
[1] = test system: patients with metastatic colorectal cancer; details: irinotecan monotherapy
[2] = test system: metastatic colorectal cancer patients
[3] = second line treatment of colorectal cancer after 5FU

| Expected (%) Grade 1-4 Abdominal colic/pain ([1]; abdominal colic/pain, grade 1-4) | Expected (%) Grade 3-4 Abdominal colic/pain ([1]; abdominal colic/pain, grade 3-4) | Expected (%) Grade 1-4 Asthenia ([1]; asthenia, grade 1-4) | Expected (%) Grade 3-4 Asthenia ([1]; asthenia, grade 3-4) | Expected (%) Grade 1-4 Constipation ([1]; constipation, grade 1-4) | Expected (%) Grade 3-4 Constipation ([1]; constipation, grade 3-4) | Expected (%) Grade 1-4 Diarrhea (Late) ([1]; late diarrhea, grade 1-4) | Expected (%) Grade 3-4 Diarrhea (Late) ([1]; late diarrhea, grade 3-4) | Expected (%) Grade 1-4 Nausea ([1]; nausea, grade 1-4) | Expected (%) Grade 1-4 Vomiting ([1]; vomiting, grade 1-4) | Expected (%) Grade 3-4 Vomiting ([1]; vomiting, grade 3-4) | debilitating (Grade 3-4) late onset diarrhea, share of patients ([2]; late onset: more than 24 hours after administration) | early onset diarrhea, frequency ([2]; within 24 hours of drug administration) | Compound | complete response rate [2, 3] | median duration of response [2, 3] | overall response rates [2, 3] | complete responses ([2]; metastatic colorectal cancer) | partial responses, share of patients ([2]; metastatic colorectal cancer) |
| --- | --- | --- | --- | --- | --- | --- | --- | --- | --- | --- | --- | --- | --- | --- | --- | --- | --- | --- |
| 23.7% | 2.3% | 75.7% | 12.2% | 29.9% | 2.0% | 87.8% | 30.6% | 86.2% | 66.8% | 12.5% | 30-40% | uncommon | CCc1c2c(nc3ccc(OC(=O)N4CCC(N5CCCCC5)CC4)cc13)-c1cc3c(c(=O)n1C2)COC(=O)[C@]3(O)CC [Irinotecan, (4S)-4,11-diethyl-4-hydroxy-9-[(4-piperidino-piperidino)carbonyl-oxy]1H-pyranol-[3′,4′:6,7]indolizinol[1,2-b]quinoline-3,14-(4H,12H)dione] | less than one percent | 6.4 months | less than 20% |  |  |
|  |  |  |  |  |  |  |  |  |  |  |  |  | O=c1[nH]cc(F)c(=O)[nH]1 [5FU, 5-fluorouracil] |  |  |  | extremely rare | less than 25% |
